#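 Results reflect a 48-hour exposure of cells in 96-well plates to compound at five concentrations. At the TGI there is no net growth.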
# Columns and labels:
# Test in all cases: DTP human tumour cell line panel, 48 h
# SK-MEL-28 melanoma = tested on: SK-MEL-28 melanoma
# HCT-15 colon = tested on: HCT-15 colon
# MALME-3M melanoma = tested on: MALME-3M melanoma
# SK-OV-3 ovarian = tested on: SK-OV-3 ovarian
# HL-60(TB) leukemia = tested on: HL-60(TB) leukemia
# UO-31 renal = tested on: UO-31 renal
# ACHN renal = tested on: ACHN renal
# U251 CNS = tested on: U251 CNS
# CCRF-CEM leukemia = tested on: CCRF-CEM leukemia
# NCI-H226 lung = tested on: NCI-H226 lung
# SW-620 colon = tested on: SW-620 colon
# NCI-H23 lung = tested on: NCI-H23 lung
# KM20L2 colon = tested on: KM20L2 colon
# COLO 205 colon = tested on: COLO 205 colon
# SF-539 CNS = tested on: SF-539 CNS
# SK-MEL-5 melanoma = tested on: SK-MEL-5 melanoma
# M19-MEL melanoma = tested on: M19-MEL melanoma
# DLD-1 colon = tested on: DLD-1 colon
# LXFL 529 NSCLC = tested on: LXFL 529 NSCLC
# SF-295 CNS = tested on: SF-295 CNS
# UACC-62 melanoma = tested on: UACC-62 melanoma
# SNB-19 CNS = tested on: SNB-19 CNS
# HOP-62 NSCLC = tested on: HOP-62 NSCLC
# A549 NSCLC = tested on: A549 NSCLC
# HOP-92 NSCLC = tested on: HOP-92 NSCLC
# OVCAR-3 ovarian = tested on: OVCAR-3 ovarian
# KM12 colon = tested on: KM12 colon
# HCT-116 colon = tested on: HCT-116 colon
# IGROV1 ovarian = tested on: IGROV1 ovarian
# NCI-H460 lung = tested on: NCI-H460 lung
# DMS 114 small cell lung = tested on: DMS 114 small cell lung
# RXF 393 renal = tested on: RXF 393 renal
# XF 498 CNS = tested on: XF 498 CNS
# CAKI-1 renal = tested on: CAKI-1 renal
# TK-10 renal = tested on: TK-10 renal
# SNB-78 CNS = tested on: SNB-78 CNS
# HT29 colon = tested on: HT29 colon
# SR leukemia = tested on: SR leukemia
# K-562 leukemia = tested on: K-562 leukemia
# SN12C renal = tested on: SN12C renal
# RPMI-8226 leukemia = tested on: RPMI-8226 leukemia
# HCC-2998 colon = tested on: HCC-2998 colon
# DMS 273 small cell lung = tested on: DMS 273 small cell lung
# M14 melanoma = tested on: M14 melanoma
# OVCAR-5 ovarian = tested on: OVCAR-5 ovarian
# HOP-18 NSCLC = tested on: HOP-18 NSCLC
# OVCAR-4 ovarian = tested on: OVCAR-4 ovarian
# SF-268 CNS = tested on: SF-268 CNS
# 786-0 renal = tested on: 786-0 renal
# SK-MEL-2 melanoma = tested on: SK-MEL-2 melanoma
# UACC-257 melanoma = tested on: UACC-257 melanoma
# MOLT-4 leukemia = tested on: MOLT-4 leukemia
# OVCAR-8 ovarian = tested on: OVCAR-8 ovarian
# NCI-H522 lung = tested on: NCI-H522 lung
# A498 renal = tested on: A498 renal
# EKVX NSCLC = tested on: EKVX NSCLC
# LOX IMVI melanoma = tested on: LOX IMVI melanoma
# SNB-75 CNS = tested on: SNB-75 CNS
# RXF-631 renal = tested on: RXF-631 renal
compound,measurement,setting,value
O=C(Cc1ccccc1)NN1C(=O)C(Cl)C1c1cccc([N+](=O)[O-])c1 (stereo unspecified),TGI,SK-MEL-28 melanoma,> 100 µM
same,TGI,HCT-15 colon,> 100 µM
same,TGI,MALME-3M melanoma,> 100 µM
same,TGI,SK-OV-3 ovarian,> 100 µM
same,TGI,HL-60(TB) leukemia,29.5 µM
same,TGI,UO-31 renal,> 100 µM
same,TGI,ACHN renal,> 100 µM
same,TGI,U251 CNS,> 100 µM
same,TGI,CCRF-CEM leukemia,5.97 µM
same,TGI,NCI-H226 lung,> 90.1 µM
same,TGI,SW-620 colon,> 89.1 µM
same,TGI,NCI-H23 lung,> 92.2 µM
same,TGI,KM20L2 colon,> 100 µM
same,TGI,COLO 205 colon,> 100 µM
same,TGI,SF-539 CNS,> 100 µM
same,TGI,SK-MEL-5 melanoma,> 100 µM
same,TGI,M19-MEL melanoma,> 37.1 µM
same,TGI,DLD-1 colon,> 100 µM
same,TGI,LXFL 529 NSCLC,49.7 µM
same,TGI,SF-295 CNS,> 100 µM
same,TGI,UACC-62 melanoma,> 100 µM
same,TGI,SNB-19 CNS,> 100 µM
same,TGI,HOP-62 NSCLC,> 100 µM
same,TGI,A549 NSCLC,> 100 µM
same,TGI,HOP-92 NSCLC,30.5 µM
same,TGI,OVCAR-3 ovarian,> 86.8 µM
same,TGI,KM12 colon,> 100 µM
same,TGI,HCT-116 colon,> 84.2 µM
same,TGI,IGROV1 ovarian,19.3 µM
same,TGI,NCI-H460 lung,> 100 µM
same,TGI,DMS 114 small cell lung,> 93.4 µM
same,TGI,RXF 393 renal,93 µM
same,TGI,XF 498 CNS,> 57.1 µM
same,TGI,CAKI-1 renal,> 63.8 µM
same,TGI,TK-10 renal,> 100 µM
same,TGI,SNB-78 CNS,> 100 µM
same,TGI,HT29 colon,> 20 µM
same,TGI,SR leukemia,22.1 µM
same,TGI,K-562 leukemia,54 µM
same,TGI,SN12C renal,> 100 µM
same,TGI,RPMI-8226 leukemia,47.8 µM
same,TGI,HCC-2998 colon,> 100 µM
same,TGI,DMS 273 small cell lung,> 100 µM
same,TGI,M14 melanoma,> 100 µM
same,TGI,OVCAR-5 ovarian,> 100 µM
same,TGI,HOP-18 NSCLC,> 100 µM
same,TGI,OVCAR-4 ovarian,> 92.9 µM
same,TGI,SF-268 CNS,> 100 µM
same,TGI,786-0 renal,> 84.4 µM
same,TGI,SK-MEL-2 melanoma,> 73.8 µM
same,TGI,UACC-257 melanoma,> 100 µM
same,TGI,MOLT-4 leukemia,45 µM
same,TGI,OVCAR-8 ovarian,> 100 µM
same,TGI,NCI-H522 lung,3.64 µM
same,TGI,A498 renal,> 100 µM
same,TGI,EKVX NSCLC,> 100 µM
COc1cc(C2C(C(=O)O)=C(COC(C)=O)Oc3cc4c(cc32)OCO4)cc(OC)c1OC(C)=O (stereo unspecified),TGI,SK-MEL-28 melanoma,> 100 µM
same,TGI,HCT-15 colon,> 100 µM
same,TGI,MALME-3M melanoma,> 100 µM
same,TGI,SK-OV-3 ovarian,> 100 µM
same,TGI,HL-60(TB) leukemia,> 100 µM
same,TGI,UO-31 renal,> 100 µM
same,TGI,ACHN renal,> 100 µM
same,TGI,U251 CNS,> 100 µM
same,TGI,CCRF-CEM leukemia,> 100 µM
same,TGI,SW-620 colon,> 100 µM
same,TGI,NCI-H23 lung,> 100 µM
same,TGI,KM20L2 colon,> 100 µM
same,TGI,COLO 205 colon,> 100 µM
same,TGI,SK-MEL-5 melanoma,> 100 µM
same,TGI,LOX IMVI melanoma,> 100 µM
same,TGI,M19-MEL melanoma,> 100 µM
same,TGI,DLD-1 colon,> 100 µM
same,TGI,SF-295 CNS,> 100 µM
same,TGI,UACC-62 melanoma,> 100 µM
same,TGI,SNB-19 CNS,> 100 µM
same,TGI,HOP-62 NSCLC,> 100 µM
same,TGI,A549 NSCLC,> 100 µM
same,TGI,HOP-92 NSCLC,> 100 µM
same,TGI,OVCAR-3 ovarian,> 100 µM
same,TGI,HCT-116 colon,> 100 µM
same,TGI,IGROV1 ovarian,> 100 µM
same,TGI,NCI-H460 lung,> 100 µM
same,TGI,DMS 114 small cell lung,> 100 µM
same,TGI,RXF 393 renal,> 100 µM
same,TGI,XF 498 CNS,> 100 µM
same,TGI,CAKI-1 renal,> 100 µM
same,TGI,TK-10 renal,> 100 µM
same,TGI,SNB-78 CNS,> 100 µM
same,TGI,HT29 colon,> 100 µM
same,TGI,K-562 leukemia,> 100 µM
same,TGI,SNB-75 CNS,> 100 µM
same,TGI,SN12C renal,> 100 µM
same,TGI,RPMI-8226 leukemia,> 100 µM
same,TGI,DMS 273 small cell lung,> 100 µM
same,TGI,M14 melanoma,> 100 µM
same,TGI,HOP-18 NSCLC,> 100 µM
same,TGI,OVCAR-4 ovarian,> 100 µM
same,TGI,786-0 renal,> 100 µM
same,TGI,SK-MEL-2 melanoma,> 100 µM
same,TGI,UACC-257 melanoma,> 100 µM
same,TGI,MOLT-4 leukemia,> 100 µM
same,TGI,RXF-631 renal,> 100 µM
same,TGI,OVCAR-8 ovarian,> 100 µM
same,TGI,EKVX NSCLC,> 100 µM
N#CC(/C(=N/NC(N)=S)C(=O)Nc1cccc(Cl)c1)c1ccccc1 (stereo unspecified),TGI,SK-MEL-28 melanoma,> 100 µM
same,TGI,HCT-15 colon,> 100 µM
same,TGI,MALME-3M melanoma,> 100 µM
same,TGI,SK-OV-3 ovarian,> 100 µM
same,TGI,HL-60(TB) leukemia,> 100 µM
same,TGI,UO-31 renal,> 100 µM
same,TGI,ACHN renal,> 100 µM
same,TGI,U251 CNS,> 100 µM
same,TGI,CCRF-CEM leukemia,> 100 µM
same,TGI,NCI-H226 lung,> 100 µM
same,TGI,SW-620 colon,> 100 µM
same,TGI,NCI-H23 lung,> 100 µM
same,TGI,KM20L2 colon,> 100 µM
same,TGI,COLO 205 colon,> 100 µM
same,TGI,SF-539 CNS,> 100 µM
same,TGI,SK-MEL-5 melanoma,> 100 µM
same,TGI,M19-MEL melanoma,> 100 µM
same,TGI,DLD-1 colon,> 100 µM
same,TGI,LXFL 529 NSCLC,> 100 µM
same,TGI,SF-295 CNS,> 100 µM
same,TGI,UACC-62 melanoma,> 100 µM
same,TGI,SNB-19 CNS,> 100 µM
same,TGI,HOP-62 NSCLC,> 100 µM
same,TGI,A549 NSCLC,> 100 µM
same,TGI,HOP-92 NSCLC,> 100 µM
same,TGI,OVCAR-3 ovarian,> 100 µM
same,TGI,KM12 colon,> 100 µM
same,TGI,HCT-116 colon,> 100 µM
same,TGI,IGROV1 ovarian,> 100 µM
same,TGI,NCI-H460 lung,> 100 µM
same,TGI,DMS 114 small cell lung,> 100 µM
same,TGI,XF 498 CNS,> 100 µM
same,TGI,CAKI-1 renal,> 100 µM
same,TGI,TK-10 renal,> 100 µM
same,TGI,HT29 colon,> 100 µM
same,TGI,SR leukemia,> 100 µM
same,TGI,K-562 leukemia,> 100 µM
same,TGI,SNB-75 CNS,> 100 µM
same,TGI,SN12C renal,> 100 µM
same,TGI,RPMI-8226 leukemia,> 100 µM
same,TGI,HCC-2998 colon,> 100 µM
same,TGI,DMS 273 small cell lung,> 100 µM
same,TGI,M14 melanoma,> 100 µM
same,TGI,OVCAR-5 ovarian,> 100 µM
same,TGI,HOP-18 NSCLC,> 100 µM
same,TGI,OVCAR-4 ovarian,> 100 µM
same,TGI,SF-268 CNS,> 100 µM
same,TGI,786-0 renal,> 100 µM
same,TGI,SK-MEL-2 melanoma,> 100 µM
same,TGI,UACC-257 melanoma,> 100 µM
same,TGI,MOLT-4 leukemia,> 100 µM
same,TGI,RXF-631 renal,> 100 µM
same,TGI,OVCAR-8 ovarian,> 100 µM
same,TGI,NCI-H522 lung,> 100 µM
same,TGI,A498 renal,> 100 µM
same,TGI,EKVX NSCLC,> 100 µM

# From PubChem BioAssay (NCI)
